# Assay results reported in patent publication US20230258569A1, “REAGENT FOR MEASURING SKIN SENSITIZATION, COMPOUND, AND METHOD FOR MEASURING SKIN SENSITIZATION” (FUJIFILM Corporation, priority 2020, published 2023).
# Counter-ions that a name gives are not always drawn.
# Legend:
# [1] = Reactivity (% depletion) of nucleophilic reagent Compound 1 with test substance, HPLC; skin sensitization prediction; conditions: for reactivity of Compound 1 in comparison with GSH-NBD / reactivity of Compound 1 in comparison with NAC and NAL in ADRA / reactivity of Compound 1 in comparison with NAC-amide / reactivity of Compound 1 in comparison with the cysteine peptide and the lysine peptide in DPRA: FIG. 3, FIG. 4; for reactivity of Compound 1 with the substance: in words
# [2] = prediction results published in the literature; cited from earlier work
# [3] = in vivo; cited from earlier work
# [4] = DPRA (direct peptide reactivity assay); conditions: in words
# Excerpt: For example, [Gerberick, G. F., Vassallo, J. D., Bailey, R. E., Chaney, J. G., Morrall, S. W., and Lepoittevin, J. P. (2004). Development of a peptide reactivity assay for screening contact allergens. Toxicological Sciences, 81 (2), pp. 332-343] and [Gerberick, G. F., Vassallo, J. D., Foertsch, L. M., Price, B. B., Chaney, J. G., and Lepoittevin, J. P. (2007). Quantification of chemical peptide reactivity for screening contact allergens: a classification tree model approach. Toxicological Sciences, 97 (2), pp. 417-427] describe a method using two types of peptides (a cysteine peptide and a lysine peptide) as nucleophilic reagents. In addition, JP2011-59102A and JP2014-37995A describe a reagent for measuring skin sensitization and a method for measuring skin sensitization, using a cysteine derivative into which an aryl ring has been introduced and a lysine derivative into which an aryl ring has been introduced as nucleophilic reagents (also referred to as ADRA).
# Natsch A. and Gfeller H. (2008). […] Quantification of chemical peptide reactivity for screening contact allergens: a classification tree model approach. […]
# One type of nucleophilic reagent (Compound 1) was evaluated. In addition, the following compounds were also evaluated in the same manner as controls for comparison of the reactivity to the fifteen types of evaluation substances. • Cys peptide • Lys peptide
# [5] = prediction results published in the literature; cited from earlier work; remark: listed apart in the source
# [6] = Stability of nucleophilic reagent (residual ratio, HPLC-UV); format: physicochemical
# Description: Immediately after preparation of the reaction solution (0 hours) and after incubation of the reaction solution at 25° C. for 24 hours (24 hours), the reaction solution is measured by HPLC-UV. At this time, since the nucleophilic reagent and the oxidized form and modified form of the nucleophilic reagent can be confirmed on HPLC, the residual ratio of the nucleophilic reagent is calculated based on the following equation.
# Residual ratio (%) of nucleophilic reagent=area value of nucleophilic reagent/(area value of nucleophilic reagent+area value of oxidized form of nucleophilic reagent+area value of modified form of nucleophilic reagent)×100
SMILES,reactivity of Compound 1 in comparison with GSH-NBD [1],reactivity of Compound 1 in comparison with NAC and NAL in ADRA [1],reactivity of Compound 1 in comparison with NAC-amide [1],reactivity of Compound 1 in comparison with the cysteine peptide and the lysine peptide in DPRA [1],DPRA prediction [2],Category of LLNA sensitization [3],reactivity of Compound 1 with the substance [1],reactivity with the cysteine peptide in DPRA [4],ADRA prediction [5],"residual ratio of nucleophilic reagent ([6]; after 24 hours, 25° C.) [%]",residual ratio of nucleophilic reagent ([6]; immediately after solution preparation (0 hours)) [%],depletion of Compound 1 ([1]; pH 7.4) [%],depletion of Compound 1 ([1]; pH 8.0) [%]
CC(C=O)Cc1ccc(C(C)C)cc1 (centres unmarked) [Cyclamen aldehyde],higher reactivity,higher reactivity,higher reactivity,higher reactivity,Positive,Weak,,,,,,,
"CCCCCCI [Compound 1-Iodohexane, 1-Iodohexane]",,same level of reactivity,same level of reactivity,,,None,no reactivity,reactive,Negative,,,,
O=c1cccccc1O [Tropolone],,higher reactivity,same level of reactivity,lower reactivity,Positive,Moderate,,,,,,,
CCCCCC(C=O)=Cc1ccccc1 [α-Pentyl cinnamaldehyde],higher reactivity,higher reactivity,higher reactivity,higher reactivity,,Weak,,,,,,,
CCC=C1OC(=O)c2ccccc21 [3-Propylidene phthalide],,same level of reactivity,same level of reactivity,lower reactivity,Positive,Moderate,,,,,,,
CCOS(=O)(=O)OCC [Diethyl sulfate],,,,,Positive,,,,,,,,
CCOC(=O)CC(=O)c1ccccc1 [Ethyl benzoylacetate],,same level of reactivity,same level of reactivity,same level of reactivity,Negative,None,,,Negative,,,,
NNC(=O)[C@H](CS)NC(=O)Cc1cccc2ccccc12 [Compound 1],,,,,,,,,,≥ 85,≥ 90,,
O=c1c(-c2ccccc2)c1-c1ccccc1 [Diphenylcyclopropenone],,higher reactivity,same level of reactivity,same level of reactivity,Positive,,,,Positive,,,,
O=C(O)c1ccc2c(c1)C(=O)OC2=O [Trimellitic anhydride],GSH-NBD showed higher reactivity,NAL showed higher reactivity than Compound 1,higher reactivity,same level of reactivity,Positive,Strong,,,Positive,,,41.0,37.2
CCCCBr [1-Bromobutane],,same level of reactivity,same level of reactivity,,,,no reactivity,reactive,Negative,,,,
CCCCCCCCC(=O)Cl [Nonanoyl chloride],GSH-NBD showed higher reactivity,higher reactivity,same level of reactivity,higher reactivity,,Moderate,,,Positive,,,,
COc1ccc(C(C)=O)cc1 [4′-Methoxyacetophenone],,same level of reactivity,same level of reactivity,same level of reactivity,Negative,None,,,Negative,,,,
O=C(Oc1ccccc1)c1ccccc1 [Phenyl benzoate],,higher reactivity,same level of reactivity,lower reactivity,Positive,Weak,,,,,,,
COC(=O)C(C)=O [Methyl pyruvate],higher reactivity,higher reactivity,higher reactivity,higher reactivity,,Moderate,,,,,,,
